# Measured values from paper PMC11823630, “In vitro potentiation of tetracyclines in Pseudomonas aeruginosa by RW01, a new cyclic peptide” (Antimicrobial Agents and Chemotherapy, 2024).
# Experiments:
# [1] = test system: P. aeruginosa PAO1; assay: MIC, CLSI broth microdilution in BD Phoenix AST Broth; assay type: cell-based, Pseudomonas aeruginosa; conditions: Pseudomonas aeruginosa, PAO1, strain PAO1; agent alone; 37°C, 18–22 h; three biological replicates; read-out: MIC
# Experimental: (§1) MIC for RW01 was also tested.
# (§2) FIC of RW01 (FICRW01)=MIC of RW01 in combination/MIC of RW01 alone,FIC of antibiotic (FICATB)=MIC of ATB in combination/MIC of ATB alone,FICI=FICRW01 +FICATB.
# (§3) FICI was interpreted as follows: synergistic effect if FICI is ≤0.5; additive effect if 0.5 < FICI ≤ 1.0; indifferent effect if 1.0 < FICI ≤ 2.0; and finally, antagonistic effect if FICI is >2.0. The average FICI considering the antibiotic MIC (no growth in any of the replicates) at different concentrations of RW01 was calculated ([28]).
# [2] = test system: P. aeruginosa PAOΔmexR; assay: as above; assay type: cell-based, Pseudomonas aeruginosa; conditions: Pseudomonas aeruginosa
# Experimental: as §1, §2, §3
# [3] = test system: P. aeruginosa PAOΔmexZ; assay: as above; assay type: cell-based, Pseudomonas aeruginosa; conditions: Pseudomonas aeruginosa, strain PAOΔmexZ; agent alone; 37°C, 18–22 h; three biological replicates
# Experimental: as §1, §2, §3
# [4] = test system: P. aeruginosa PAOUW; assay: as above; assay type: cell-based, Pseudomonas aeruginosa; conditions: Pseudomonas aeruginosa, strain PAOUW; agent alone; 37°C, 18–22 h; three biological replicates; read-out: MIC
# Experimental: as §1, §2, §3
# [5] = test system: P. aeruginosa 125A; assay: as above; assay type: cell-based, Pseudomonas aeruginosa; conditions: Pseudomonas aeruginosa; strain 125A; agent alone; 37°C, 18–22 h; three biological replicates
# Experimental: as §1, §2, §3
# [6] = test system: P. aeruginosa PAOUW∆oprF; assay: as above; assay type: cell-based, Pseudomonas aeruginosa; conditions: Pseudomonas aeruginosa, strain PAOUWΔoprF; agent alone; 37°C, 18–22 h; three biological replicates
# Experimental: as §1, §2, §3
# [7] = test system: P. aeruginosa PAOΔoprM; assay: as above; assay type: cell-based, Pseudomonas aeruginosa; conditions: Pseudomonas aeruginosa
# Experimental: as §1, §2, §3
# [8] = test system: P. aeruginosa 125B; assay: as above; assay type: cell-based, Pseudomonas aeruginosa; conditions: Pseudomonas aeruginosa; strain 125B; agent alone; 37°C, 18–22 h; three biological replicates
# Experimental: as §1, §2, §3
# [9] = test system: P. aeruginosa 41B; assay: as above; assay type: cell-based, Pseudomonas aeruginosa; conditions: Pseudomonas aeruginosa; strain 41B; agent alone; 37°C, 18–22 h; three biological replicates
# Experimental: as §1, §2, §3
# [10] = test system: P. aeruginosa 41A; assay: as above; assay type: cell-based, Pseudomonas aeruginosa; conditions: Pseudomonas aeruginosa; strain 41A; agent alone; 37°C, 18–22 h; three biological replicates
# Experimental: as §1, §2, §3
# [11] = test system: PAO1 mutant MIN4_RW01_2, pmrB(F124S); assay: microbe, parasite or virus in culture; assay type: cell-based; conditions: Pseudomonas aeruginosa, PAO1, read-out: MIC, Sensititre
# Experimental: (§4) Selection of resistant mutants was performed for minocycline with and without RW01 in three independent replicates for wild-type P. aeruginosa reference strain PAO1. Tubes containing Mueller-Hinton broth (MHB) were inoculated and incubated for 24 h at 37°C. Afterward, 1/100 dilution of each tube was incubated at 37°C in MHB to late-exponential growth phase, measured by spectrophotometry at OD600. […] A control plate without antibiotic was included as inoculum control. After overnight incubation, colony counting of each treatment was performed to analyze the generation of resistant population. The mutant prevention concentration (MPC) was defined as the lowest concentration of antibiotic yielding no growth of resistant mutants. Selected mutants were checked for susceptibility profiles by using a Sensititre custom plate (Thermo Fisher Scientific, Massachusetts, USA) for Gram-negative bacteria, following the manufacturer’s instructions.
# [12] = test system: PAO1 mutant MIN1_RW01_4, pmrB(F124L); assay: microbe, parasite or virus in culture; assay type: cell-based; conditions: Pseudomonas aeruginosa, PAO1, read-out: MIC, Sensititre
# Experimental: as §4
# [13] = test system: PAO1 mutant MIN1_RW01_3, pmrB(V215L); assay: MIC, Sensititre custom plate; assay type: cell-based; conditions: Pseudomonas aeruginosa, PAO1, read-out: MIC, Sensititre
# Experimental: as §4
# [14] = test system: PAO1 mutant MIN2_RW01_4, pmrB(M292T); assay: MIC, Sensititre custom plate; assay type: cell-based; conditions: Pseudomonas aeruginosa, PAO1, read-out: MIC, Sensititre
# Experimental: as §4
# [15] = test system: PAO1 mutant MIN16_2, nalC(aa9∆4), pilQ(nt46∆1); assay: MIC, Sensititre custom plate; assay type: cell-based; conditions: Pseudomonas aeruginosa, PAO1, read-out: MIC, Sensititre
# Experimental: as §4
# [16] = test system: PAO1 mutant MIN4_RW01_4, pmrB(Y98N); assay: MIC, Sensititre custom plate; assay type: cell-based; conditions: Pseudomonas aeruginosa, PAO1, read-out: MIC, Sensititre
# Experimental: as §4
# [17] = test system: PAO1 mutant MIN2_RW01_3, parS(V152A); assay: MIC, Sensititre custom plate; assay type: cell-based; conditions: Pseudomonas aeruginosa, PAO1, read-out: MIC, Sensititre
# Experimental: as §4
# [18] = test system: PAO1 mutant MIN8_3, pilZ(nt18InsT); assay: MIC, Sensititre custom plate; assay type: cell-based; conditions: Pseudomonas aeruginosa, PAO1, read-out: MIC, Sensititre
# Experimental: as §4
# [19] = test system: PAO1 mutant MIN1_RW01_2, mexR(G58E), pilB(G326D), hutC(Y181X); assay: MIC, Sensititre custom plate; assay type: cell-based; conditions: Pseudomonas aeruginosa, PAO1, read-out: MIC, Sensititre
# Experimental: as §4
# [20] = test system: PAO1 mutant MIN2_RW01_1, pmrB(V215L); assay: MIC, Sensititre custom plate; assay type: cell-based; conditions: Pseudomonas aeruginosa, PAO1, read-out: MIC, Sensititre
# Experimental: as §4
# [21] = test system: PAO1 mutant MIN8_2, pilZ(nt18InsT); assay: MIC, Sensititre custom plate; assay type: cell-based; conditions: Pseudomonas aeruginosa, PAO1, read-out: MIC, Sensititre
# Experimental: as §4
# [22] = test system: P. aeruginosa PAO1, WT; assay: MIC, Sensititre custom plate; assay type: cell-based; conditions: Pseudomonas aeruginosa, PAO1, read-out: MIC, Sensititre
# Experimental: as §4
# [23] = test system: PAO1 mutant MIN16_4, nalC(T50P), pilM(Q62X); assay: MIC, Sensititre custom plate; assay type: cell-based; conditions: Pseudomonas aeruginosa, PAO1, read-out: MIC, Sensititre
# Experimental: as §4
# [24] = test system: PAO1 mutant MIN32_1, mexR(R63H), pilB(N349K), PA0646(V316G); assay: MIC, Sensititre custom plate; assay type: cell-based; conditions: Pseudomonas aeruginosa, PAO1, read-out: MIC, Sensititre
# Experimental: as §4
# [25] = test system: PAO1 mutant MIN8_4, pilZ(nt18InsT); assay: MIC, Sensititre custom plate; assay type: cell-based; conditions: Pseudomonas aeruginosa, PAO1, read-out: MIC, Sensititre
# Experimental: as §4
# [26] = test system: PAO1 mutant MIN1_RW01_1, pmrB(Y98N); assay: MIC, Sensititre custom plate; assay type: cell-based; conditions: Pseudomonas aeruginosa, PAO1, read-out: MIC, Sensititre
# Experimental: as §4
# [27] = test system: PAO1 mutant MIN16_3, nfxB(nt79∆14), pilB(N349K); assay: MIC, Sensititre custom plate; assay type: cell-based; conditions: Pseudomonas aeruginosa, PAO1, read-out: MIC, Sensititre
# Experimental: as §4
# [28] = test system: PAO1 mutant MIN2_RW01_2, pmrB(M292T); assay: MIC, Sensititre custom plate; assay type: cell-based; conditions: Pseudomonas aeruginosa, PAO1, read-out: MIC, Sensititre
# Experimental: as §4
# [29] = test system: PAO1 mutant MIN4_RW01_3, pmrB(M292T); assay: MIC, Sensititre custom plate; assay type: cell-based; conditions: Pseudomonas aeruginosa, PAO1, read-out: MIC, Sensititre
# Experimental: as §4
# [30] = test system: PAO1 mutant MIN4_RW01_1, pmrB(R429H); assay: MIC, Sensititre custom plate; assay type: cell-based; conditions: Pseudomonas aeruginosa, PAO1, read-out: MIC, Sensititre
# Experimental: as §4
# [31] = test system: PAO1 mutant MIN16_1, nalD(T43P); assay: MIC, Sensititre custom plate; assay type: cell-based; conditions: Pseudomonas aeruginosa, PAO1, read-out: MIC, Sensititre
# Experimental: as §4
# [32] = test system: PAO1 mutant MIN8_1, nalD(R3C), pilM(Q62X); assay: MIC, Sensititre custom plate; assay type: cell-based; conditions: Pseudomonas aeruginosa, PAO1, read-out: MIC, Sensititre
# Experimental: as §4
Structure (SMILES),MIC [11] [µg/mL],MIC [12] [µg/mL],MIC [13] [µg/mL],MIC [14] [µg/mL],MIC [15] [µg/mL],MIC [16] [µg/mL],MIC [17] [µg/mL],MIC [18] [µg/mL],MIC [19] [µg/mL],MIC [20] [µg/mL],MIC [21] [µg/mL],MIC [22] [µg/mL],MIC [23] [µg/mL],MIC [24] [µg/mL],MIC [25] [µg/mL],MIC [26] [µg/mL],MIC [27] [µg/mL],MIC [28] [µg/mL],MIC [29] [µg/mL],MIC [30] [µg/mL],other results
"C[C@@H](O)[C@H]1C(=O)N2C(C(=O)O)=C(SCCN=CN)C[C@H]12 [Imipenem, imipenem]",2,2,2,2,2,4,8,2,1,4,2,1 to 2,2,2,2,2,1,2,16,2 to 4,MIC [1]: 2 µg/mL; MIC [2]: 0.5 µg/mL; MIC [3]: 2 µg/mL; MIC [4]: 8 µg/mL; MIC [5]: 2 µg/mL; MIC [6]: 2 µg/mL; MIC [7]: 2 µg/mL; MIC [8]: 2 µg/mL; MIC [9]: 16 µg/mL; MIC [10]: 2 µg/mL; MIC [31]: 2 to 4 µg/mL; MIC [32]: 2 µg/mL
"CC1(C)S[C@@H]2[C@H](NC(=O)[C@H](C(=O)O)c3ccsc3)C(=O)N2[C@H]1C(=O)O [TIC, ticarcillin]",16,16,16,32,64,16,16,64,128,64,64,16,64,128,64,16,16,32,16,128,MIC [31]: 64 µg/mL; MIC [32]: 64 µg/mL
"NC[C@H]1O[C@H](O[C@H]2[C@H](O)[C@@H](O[C@H]3O[C@H](CO)[C@@H](O)[C@H](N)[C@H]3O)[C@H](N)C[C@@H]2N)[C@H](N)C[C@@H]1O [TOB, tobramycin]",0.5,≤ 0.25,1,0.5,≤ 0.25,1,1,≤ 0.25,≤ 0.25,0.5,0.5,0.25 to 0.5,≤ 0.25,0.25 to 0.5,0.5,1,≤ 0.25,0.5,0.5,0.5,MIC [31]: 0.5 µg/mL; MIC [32]: 0.5 µg/mL
